What all share (experiment): NCI-60 cell line screen, 48 h
Assay [1] relates to COLO 205 colon.
Assay [2] concerns HT29 colon.
In assay [3] the test system is NCI-H23 lung.
Assay [4] deals with U251 CNS.
Assay [5] concerns LOX IMVI melanoma.
Assay [6] relates to CAKI-1 renal.
Assay [7] deals with UO-31 renal.
The test system of assay [8] is MOLT-4 leukemia.
Assay [9] concerns UACC-257 melanoma.
Assay [10] relates to SK-MEL-5 melanoma.
The test system of assay [11] is HL-60(TB) leukemia.

SMILES strings stand for the structures.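 Values below derive from 48-hour exposures of cells grown in 96-well plates, with endpoints linearly interpolated between the two concentrations bracketing the appropriate inhibition level. TGI denotes the concentration required for complete inhibition of growth.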

With `N#C/C(=C\c1ccc([N+](=O)[O-])o1)c1n[nH]c(Cc2ccccc2)n1`, the TGI in assay [1] worked out at 2.74 µM; in [2] it was 2.83 µM; in assay [3], 2.89 µM; in assay [4], 10.7 µM; in assay [5], 3.85 µM; in assay [6], 3.96 µM. In addition, the TGI in assay [7] is 9.74 µM; in assay [8] it was greater than 100 µM; in [9] it was 4.26 µM; in [10], 2.51 µM; in [11] it was 6.83 µM.

Values taken from PubChem BioAssay (NCI).
